# From patent US20240415819A1, “MACROCYCLIC COMPOUNDS AS PROTEASOME SUBUNIT BETA TYPE-5 INHIBITORS” (Lead Discovery Center GmbH, priority 2021, published 2024)
# pIC50: −log10 of the molar value.
# Key:
# [1] = system: A549 (human lung carcinoma cell line); test: Glo assay of A549 cells (Table 3; ProteasomeGlo plating scheme); format: cell-based; settings: Homo sapiens; A549 cells; read-out: PGLo A549
# Outline: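 Luminescent read-out of cellular chymotrypsin-like proteasome activity: cells exposed to compound 105 min at 37° C., 5% CO2, then given Suc-LLVY-Glo reagent, shaken 2-5 min and kept dark 10-15 min before reading. Values are IC50 [nM].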
# [2] = target: T1, β5 subunit of the human immunoproteasome (IPS) (Homo sapiens, UniProt P28062); test: β5 inhibition assay, human immunoproteasome (Suc-LLVY-AMC); format: biochemical; settings: IC50 class, Suc-LLVY-AMC substrate
# T1 construct: purchased Boston Biochem E-370
# Outline: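 β5 activity is read as liberated AMC fluorescence (355/460 nm) after 4 h dark reaction at RT with 22.6 μM Suc-LLVY-AMC, stopped by 1 μM bortezomib. Beforehand, 1 nM human IPS and compound sat 10 min at RT in HEPES pH 7.5 buffer containing NaCl, 0.02% SDS and DTT.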
# [3] = system: HT-29 cells; test: CellTiter-Glo luminescent cell viability assay with HT-29 cells (72h incubation); format: cell-based, human; settings: Homo sapiens, HT-29, HT29 cells, read-out: CTG HT29
# Outline: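 Viability read as CellTiter-Glo luminescence after 72 h compound exposure, with 10 μM staurosporine and DMSO as control wells. Seeding 400 cells per well, compound added 24 h post-plating; IC50 from curve fitting.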
Compound,pIC50 [1],pIC50 [2],pIC50 [3]
"COc1cccc(CC(=O)N[C@H]2CC(=O)N3CCCC(CCOc4ccc(C)c(c4)CNC(=O)C(c4cnn(C)c4)NC2=O)C3)c1 (stereo partly drawn) [Compound 362, 2-(3-methoxyphenyl)-N-((12S)-5^4-methyl-9-(1-methyl-1H-pyrazol-4-yl)-8,11,14-trioxo-4-oxa-7,10-diaza-1(3,1)-piperidina-5(1,3)-benzenacyclotetradecaphane-12-yl)acetamide]",> 7.00,> 7.00,> 7.00
"CCOC(=O)N[C@H]1CC(=O)N2CCCC(CCOc3ccc(C)c(c3)CNC(=O)C(c3cnn(C)c3)NC1=O)C2 (stereo partly drawn) [Compound 363, Ethyl ((12S)-5^4-methyl-9-(1-methyl-1H-pyrazol-4-yl)-8,11,14-trioxo-4-oxa-7,10-diaza-1(3,1)-piperidina-5(1,3)-benzenacyclotetradecaphane-12-yl)carbamate]",> 7.00,> 7.00,> 7.00
"CC(=O)N[C@H]1CC(=O)N2CCCC(CCOc3cccc(c3)CNC(=O)[C@H](CCc3ccccc3)NC1=O)C2 (stereo partly drawn) [Compound 364, N-((9S,12S)-8,11,14-trioxo-9-phenethyl-4-oxa-7,10-diaza-1(3,1)-piperidina-5(1,3)-benzenacyclotetradecaphane-12-yl)acetamide]",> 7.00,> 7.00,> 7.00
"Cc1ccc2cc1CNC(=O)C(CCc1cnccn1)NC(=O)[C@@H](NC(=O)C1(c3ccc(N)cc3)CC1)CC(=O)N1CCCC(CCO2)C1 (stereo partly drawn) [Compound 371, 1-(4-aminophenyl)-N-((9S,12S)-5^4-methyl-8,11,14-trioxo-9-(2-(pyrazin-2-yl)ethyl)-4-oxa-7,10-diaza-1(3,1)-piperidina-5(1,3)-benzenacyclotetradecaphane-12-yl)cyclopropane-1-carboxamide]",> 7.00,> 7.00,> 7.00
"Cc1ccc2cc1CNC(=O)C(CCc1cnccn1)NC(=O)[C@@H](NC(=O)Cc1ccc(N)cc1F)CC(=O)N1CCCC(CCO2)C1 (stereo partly drawn) [Compound 372, 2-(4-amino-2-fluorophenyl)-N-((9S,12S)-5^4-methyl-8,11,14-trioxo-9-(2-(pyrazin-2-yl)ethyl)-4-oxa-7,10-diaza-1(3,1)-piperidina-5(1,3)-benzenacyclotetradecaphane-12-yl) acetamide]",> 7.00,> 7.00,> 7.00
"Cc1ccc2cc1CNC(=O)C(CCc1ccccc1)NC(=O)[C@@H](NC(=O)OCc1ccccc1)CC(=O)N1CCCC(CCO2)C1 (stereo partly drawn) [Compound 503, benzyl ((12S)-9-phenethyl-5^4-methyl-8,11,14-trioxo-4-oxa-7,10-diaza-1(3,1)-piperidina-5(1,3)-benzenacyclotetradecaphane-12-yl)carbamate]",6.30 to 7.00,> 7.00,> 7.00
"Cc1ccc2cc1CNC(=O)C(CCc1cnc3nccnc3c1)NC(=O)[C@@H](NC(=O)OCc1ccccc1)CC(=O)N1CCCC(CCO2)C1 (stereo partly drawn) [Compound 505, benzyl ((12S)-5^4-methyl-8,11,14-trioxo-9-(2-(pyrido[2,3-b]pyrazin-7-yl)ethyl)-4-oxa-7,10-diaza-1(3,1)-piperidina-5(1,3)-benzenacyclotetradecaphane-12-yl)carbamate]",> 7.00,> 7.00,> 7.00
"Cc1ccc2cc1CNC(=O)C(CCc1ccc(S(=O)(=O)O)cc1)NC(=O)[C@@H](NC(=O)OCc1ccccc1)CC(=O)N1CCCC(CCO2)C1 (stereo partly drawn) [Compound 509, 4-(2-((12S)-12-(((benzyloxy)carbonyl)amino)-5^4-methyl-8,11,14-trioxo-4-oxa-7,10-diaza-1(3,1)-piperidina-5(1,3)-benzenacyclotetradecaphane-9-yl)ethyl)benzenesulfonic acid]",> 7.00,> 7.00,6.30 to 7.00
"Cc1ccc2cc1CNC(=O)C(CCc1ccc(C3(C)COC3)cc1)NC(=O)[C@@H](NC(=O)OCc1ccccc1)CC(=O)N1CCCC(CCO2)C1 (stereo partly drawn) [Compound 510, benzyl ((12S)-5^4-methyl-9-(4-(3-methyloxetan-3-yl)phenethyl)-8,11,14-trioxo-4-oxa-7,10-diaza-1(3,1)-piperidina-5(1,3)-benzenacyclotetradecaphane-12-yl)carbamate]",> 7.00,> 7.00,> 7.00
"Cc1ccc2cc1CNC(=O)C(CCc1cnc3cccnc3c1)NC(=O)[C@@H](NC(=O)OCc1ccccc1)CC(=O)N1CCCC(CCO2)C1 (stereo partly drawn) [Compound 511, benzyl ((12S)-9-(2-(1,5-naphthyridin-3-yl)ethyl)-5^4-methyl-8,11,14-trioxo-4-oxa-7,10-diaza-1(3,1)-piperidina-5(1,3)-benzenacyclotetradecaphane-12-yl)carbamate]",> 7.00,> 7.00,> 7.00
"Cc1nc(C2NC(=O)[C@@H](NC(=O)OCc3ccccc3)CC(=O)N3CCCC(CCOc4ccc(C)c(c4)CNC2=O)C3)co1 (stereo partly drawn) [Compound 512, benzyl ((12S)-5^4-methyl-9-(2-methyloxazol-4-yl)-8,11,14-trioxo-4-oxa-7,10-diaza-1(3,1)-piperidina-5(1,3)-benzenacyclotetradecaphane-12-yl)carbamate]",> 7.00,> 7.00,> 7.00
"COC(=O)N(CC1NC(=O)[C@@H](NC(=O)OCc2ccccc2)CC(=O)N2CCCC(CCOc3ccc(C)c(c3)CNC1=O)C2)c1ccccc1 (stereo partly drawn) [Compound 513, methyl (((12R)-12-(((benzyloxy)carbonyl)amino)-5^4-methyl-8,11,14-trioxo-4-oxa-7,10-diaza-1(3,1)-piperidina-5(1,3)-benzenacyclotetradecaphane-9-yl)methyl)(phenyl)carbamate]",> 7.00,> 7.00,> 7.00
"CC(=O)N[C@H]1CC(=O)N2CCCC(CCOc3ccc(C)c(c3)CNC(=O)C(CCc3cccnc3)NC1=O)C2 (stereo partly drawn) [Compound 549, N-((12S)-5^4-methyl-8,11,14-trioxo-9-(2-(pyridin-3-yl)ethyl)-4-oxa-7,10-diaza-1(3,1)-piperidina-5(1,3)-benzenacyclotetradecaphane-12-yl)acetamide]",6.30 to 7.00,> 7.00,> 7.00
"CC(=O)N[C@H]1CC(=O)N2CCCC(CCOc3ccc(C)c(c3)CNC(=O)C(CCc3ccncc3)NC1=O)C2 (stereo partly drawn) [Compound 551, N-((12S)-5^4-methyl-8,11,14-trioxo-9-(2-(pyridin-4-yl)ethyl)-4-oxa-7,10-diaza-1(3,1)-piperidina-5(1,3)-benzenacyclotetradecaphane-12-yl)acetamide]",> 7.00,> 7.00,> 7.00
"CC(=O)N[C@H]1CC(=O)N2CCCC(CCOc3ccc(C)c(c3)CNC(=O)C(c3cnn(C)c3)NC1=O)C2 (stereo partly drawn) [Compound 552, N-((12S)-5^4-methyl-9-(1-methyl-1H-pyrazol-4-yl)-8,11,14-trioxo-4-oxa-7,10-diaza-1(3,1)-piperidina-5(1,3)-benzenacyclotetradecaphane-12-yl)acetamide]",6.30 to 7.00,> 7.00,> 7.00
"CC(=O)N[C@H]1CC(=O)N2CCCC(CCOc3ccc(C)c(c3)CNC(=O)C(c3coc(C)n3)NC1=O)C2 (stereo partly drawn) [Compound 553, N-((12S)-5^4-methyl-9-(2-methyloxazol-4-yl)-8,11,14-trioxo-4-oxa-7,10-diaza-1(3,1)-piperidina-5(1,3)-benzenacyclotetradecaphane-12-yl)acetamide]",6.30 to 7.00,> 7.00,> 7.00
